In paper PMC4971421, “Redox-Dependent Modulation of T-Type Ca^2+ Channels in Sensory Neurons Contributes to Acute Anti-Nociceptive Effect of Substance P” (Antioxidants & Redox Signaling, 2016):

Legend:
Nav1.5 = details: 1 μM; cited from earlier work
CaV3 = details: read-out: IC50, CaV3 inhibition; cited from earlier work
Protocol: (§1) The T-type Ca^2+ current is an important regulator of sensory neuron excitability ([10], [17], [18], [20], [23], [24], [51], [71], [75]). […] Z944 (1 μM) inhibited LVA curren ...

L-type VGCCs = details: 1 μM; cited from earlier work
Protocol: as §1

rat hind paw = test: BK-induced nocifensive behavior, pre-injection protocol; assay type: in vivo; details: for BK-induced nociception: 5 min before BK 10 nmol/site
Protocol: Sprague–Dawley rats (body weight, 170–180 g) were grouped randomly and allowed to acclimate for at least 30 min in a transparent observation chamber before the experiment. Animals received a 50-μl intraplantar injection of ST101 (0.001–10 nmol/site), BK (10 nmol/site), RTG (1–10 nmol/site), Z944 (0.05–5 nmol/site), SP (0.5–5 nmol/site), or saline, respectively, into the right hind paw. For evaluation of the acute “spontaneous” pain, animals were video-recorded for 30 min after the injection and protective (“nocifensive”) behavior was analyzed as time spent licking, biting, lifting, and flinching the injected paw. The analyses were performed by an observer who was unaware of treatment allocations. In the pre-injection experiments, the right hind paw of the animal received a pre-injection of 50 μl Z944 (0.05–0.5 nmol/site), RTG (1–10 nmol/site), SP (0.5 nmol/site), Z944 (0.05–0.5 nmol/site)+RTG (1 nmol/site), or saline; 5 min later, on the same paw, the animal received a further 50-μl injection of BK (10 nmol/site) together with the pre-injection drug mix. Nocifensive behavior was analyzed as described earlier.
The in vivo CaV3.2 knock-down was performed as described earlier ([3]) by using the same ODN sequences that were synthesized by SBS Genetech. AS ODNs had the following sequence: […]. The mismatch ODNs of the following sequence were used as a negative control: […]. The mismatch ODN was not complementary to any known nucleotide sequence. ODNs were reconstituted in saline before injection. ODNs (12.5 μg/rat in 10 μl of saline) or saline were injected intrathecally (i.t.) between the L5 and L6 dorsal spinous processes as described earlier ([3], [42]) under isoflurane anesthesia. The treatment was repeated twice daily for 4 days. The pain tests were performed on the next day after the last injection. After behavioral testing, animals were humanly sacrificed; lumbar DRGs were extracted and analyzed for the knock-down efficiency by comparing the Cacna1h mRNA levels in lumbar (L4 to L6) DRGs of the saline-injected, mismatch ODN-injected, and AS ODN-injected animals using RT-PCR. The same Cacna1h and Gapdh primers as in siRNA experiments were used for RT-PCR.

N-type VGCCs = details: 1 μM; cited from earlier work
[1] = system: high-voltage-activated (HVA) Ca^2+ currents in DRG neurons; test: HVA Ca2+ current, whole-cell patch clamp, DRG neurons; assay type: cell-based, rat; details: 1 μM
Protocol: DRG neurons from adult male Sprague–Dawley rats (170–180 g) were dissociated as previously described ([13], [29]) and cultured in DMEM supplemented with GlutaMax I, 10% fetal calf serum, penicillin (50 U/ml), and streptomycin (50 μg/ml) on glass coverslips that were coated with poly-D-lysine for 2–5 days in a humidified incubator (37°C, 5% CO2). No growth factors were added to the culture media. HEK 293 cells were cultured in the same DMEM media; cells were passaged every 2 days. Human NK1 receptor (GenBank accession No. AY462098) complementary DNA (cDNA) was from the Missouri Science and Technology cDNA Resource Center. WtCaV3.1 (GenBank accession No. AF027984), wtCaV3.2 (GenBank accession No. AF051946), CaV3.1Q172H, and CaV3.2H191Q were kindly provided by Dr E. Perez-Reyes (University of Virginia). HEK293 cells were transfected using Lipofectamine 2000 (Invitrogen) according to the manufacturer's instructions. […]
All recordings were made using Multiclamp 700B amplifier in combination with pCLAMP 10.4 software (Molecular Devices). […] T-type calcium currents (LVA) were measured by 50 ms square voltage pulses to −40 mV from a holding potential of −90 mV. HVA currents were measured by 200 ms square voltage pulses to 0 mV from a holding potential of −90 mV.

Q: For `CC(C)(C)NC(=O)CN1CCC(CNC(=O)c2cc(F)cc(Cl)c2)CC1` [Z944, N-[[1-[2-(tert-butylamino)-2-oxoethyl]piperidin-4-yl]methyl]-3-chloro-5-fluorobenzamide], which “effect on Nav1.5” value (Nav1.5) is on record?
A: The value was “no significant effect”.

Q: And the IC50 (CaV3)?
A: Its IC50 is ~50 nM.

Q: What about the “effect on L-type VGCCs” value (L-type VGCCs) of the same compound?
A: Its value is “no significant effect”.

Q: And the “nocifensive behavior produced by hind-paw BK injection in saline- and mismatch ODN-injected animals” value (rat hind paw; 0.5 nmol/site, BK 10 nmol/site)?
A: The value was “still significantly attenuated”.

Q: And the BK-induced nociception (rat hind paw; pre-injection 0.05 nmol/site)?
A: The BK-induced nociception was “not at 0.05 nmol/site”.

Q: And the BK-induced nociception (rat hind paw; pre-injection 0.5 nmol/site)?
A: Its BK-induced nociception is “significantly attenuated”.

Q: What about the “effect on N-type VGCCs” value (N-type VGCCs) of the same compound?
A: Its value is “no significant effect”.

Q: And the “effect on HVA current” value [1]?
A: Its value is “without a noticeable effect”.
